Data from PubChem BioAssay AID2060624 (Molecular Pharmacology Branch, DTP, NCI, 2025).

System: 217524-143-R1-J4-PDC spheroids with HUVEC/MSC, viability
Experiment: Anticancer human tumor 217524-143-R1-J4-PDC patient-derived pancreatic carcinoma cell line growth inhibition [CLK]
Details: for IC50: curve of first compound; for viability, T/C: stronger effect = lower value
Summary of the method: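 Patient-derived tumor cells grown as complex spheroids with HUVEC endothelial cells and mesenchymal stem cells, treated with drug combinations. Concentrations descend in half-log steps from near clinical Cmax, or from 10 microM if Cmax unknown.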
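Also: spheroids exposed to agents for seven days before reading.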
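For viability, T/C in this document: 100% = DMSO vehicle control viability.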

Nc1ccn(C2OC(CO)C(O)C2(F)F)c(=O)n1 (centres undefined) + CN1CCN(c2cc(C(=O)Nc3cc4cc(-c5cnn(C)c5)ccc4cn3)ccn2)CC1
IC50 (second compound 0.0316 µM): 43.2 nM
IC50 (second compound 0.1 µM): < 31.6 nM
IC50 (second compound 0.316 µM): < 31.6 nM
IC50 (second compound 1 µM): < 31.6 nM
IC50 (second compound 3.16 µM): < 31.6 nM
IC50 (second compound 10 µM): < 31.6 nM
viability, T/C (second compound 0.0316 µM, first compound 0.0316 µM): 60.1%
viability, T/C (second compound 0.0316 µM, first compound 0.1 µM): 22.9%
viability, T/C (second compound 0.0316 µM, first compound 0.316 µM): 20.5%
viability, T/C (second compound 0.0316 µM, first compound 1 µM): 19.9%
viability, T/C (second compound 0.0316 µM, first compound 3.16 µM): 24.1%
viability, T/C (second compound 0.0316 µM, first compound 10 µM): 22.6%
viability, T/C (second compound 0.1 µM, first compound 0.0316 µM): 36%
viability, T/C (second compound 0.1 µM, first compound 0.1 µM): 22.9%
viability, T/C (second compound 0.1 µM, first compound 0.316 µM): 16.1%
viability, T/C (second compound 0.1 µM, first compound 1 µM): 16.9%
viability, T/C (second compound 0.1 µM, first compound 3.16 µM): 18.9%
viability, T/C (second compound 0.1 µM, first compound 10 µM): 17.9%
viability, T/C (second compound 0.316 µM, first compound 0.0316 µM): 15.4%
viability, T/C (second compound 0.316 µM, first compound 0.1 µM): 10.9%
viability, T/C (second compound 0.316 µM, first compound 0.316 µM): 11.6%
viability, T/C (second compound 0.316 µM, first compound 1 µM): 9.15%
viability, T/C (second compound 0.316 µM, first compound 3.16 µM): 13.3%
viability, T/C (second compound 0.316 µM, first compound 10 µM): 10.8%
viability, T/C (second compound 1 µM, first compound 0.0316 µM): 1.8%
viability, T/C (second compound 1 µM, first compound 0.1 µM): 1.09%
viability, T/C (second compound 1 µM, first compound 0.316 µM): 1.22%
viability, T/C (second compound 1 µM, first compound 1 µM): 1.31%
viability, T/C (second compound 1 µM, first compound 3.16 µM): 1.04%
viability, T/C (second compound 1 µM, first compound 10 µM): 1.02%
viability, T/C (second compound 3.16 µM, first compound 0.0316 µM): 0.72%
viability, T/C (second compound 3.16 µM, first compound 0.1 µM): 0.59%
viability, T/C (second compound 3.16 µM, first compound 0.316 µM): 0.75%
viability, T/C (second compound 3.16 µM, first compound 1 µM): 0.76%
viability, T/C (second compound 3.16 µM, first compound 3.16 µM): 0.87%
viability, T/C (second compound 3.16 µM, first compound 10 µM): 0.72%
viability, T/C (second compound 10 µM, first compound 0.0316 µM): 0.2%
viability, T/C (second compound 10 µM, first compound 0.1 µM): 0.2%
viability, T/C (second compound 10 µM, first compound 0.316 µM): 0.21%
viability, T/C (second compound 10 µM, first compound 1 µM): 0.25%
viability, T/C (second compound 10 µM, first compound 3.16 µM): 0.24%
viability, T/C (second compound 10 µM, first compound 10 µM): 0.22%

CC(C)CC(NC(=O)C(Cc1ccccc1)NC(=O)c1cnccn1)B(O)O (centres undefined) + CN1CCN(c2cc(C(=O)Nc3cc4cc(-c5cnn(C)c5)ccc4cn3)ccn2)CC1
IC50 (second compound 0.0316 µM): 3.03 nM
IC50 (second compound 0.1 µM): 2.29 nM
IC50 (second compound 0.316 µM): < 0.949 nM
IC50 (second compound 1 µM): < 0.949 nM
IC50 (second compound 3.16 µM): < 0.949 nM
IC50 (second compound 10 µM): < 0.949 nM
viability, T/C (second compound 0.0316 µM, first compound 0.000949 µM): 89.7%
viability, T/C (second compound 0.0316 µM, first compound 0.003 µM): 49.9%
viability, T/C (second compound 0.0316 µM, first compound 0.00949 µM): 22.4%
viability, T/C (second compound 0.0316 µM, first compound 0.03 µM): 6.55%
viability, T/C (second compound 0.0316 µM, first compound 0.0949 µM): 5.49%
viability, T/C (second compound 0.0316 µM, first compound 0.3 µM): 2.12%
viability, T/C (second compound 0.1 µM, first compound 0.000949 µM): 58.3%
viability, T/C (second compound 0.1 µM, first compound 0.003 µM): 47.5%
viability, T/C (second compound 0.1 µM, first compound 0.00949 µM): 14.4%
viability, T/C (second compound 0.1 µM, first compound 0.03 µM): 5.38%
viability, T/C (second compound 0.1 µM, first compound 0.0949 µM): 3.86%
viability, T/C (second compound 0.1 µM, first compound 0.3 µM): 2.25%
viability, T/C (second compound 0.316 µM, first compound 0.000949 µM): 25%
viability, T/C (second compound 0.316 µM, first compound 0.003 µM): 24%
viability, T/C (second compound 0.316 µM, first compound 0.00949 µM): 3.44%
viability, T/C (second compound 0.316 µM, first compound 0.03 µM): 1.85%
viability, T/C (second compound 0.316 µM, first compound 0.0949 µM): 1.33%
viability, T/C (second compound 0.316 µM, first compound 0.3 µM): 0.89%
viability, T/C (second compound 1 µM, first compound 0.000949 µM): 1.64%
viability, T/C (second compound 1 µM, first compound 0.003 µM): 0.62%
viability, T/C (second compound 1 µM, first compound 0.00949 µM): 0.77%
viability, T/C (second compound 1 µM, first compound 0.03 µM): 0.46%
viability, T/C (second compound 1 µM, first compound 0.0949 µM): 0.4%
viability, T/C (second compound 1 µM, first compound 0.3 µM): 0.42%
viability, T/C (second compound 3.16 µM, first compound 0.000949 µM): 0.67%
viability, T/C (second compound 3.16 µM, first compound 0.003 µM): 0.98%
viability, T/C (second compound 3.16 µM, first compound 0.00949 µM): 2.38%
viability, T/C (second compound 3.16 µM, first compound 0.03 µM): 1.54%
viability, T/C (second compound 3.16 µM, first compound 0.0949 µM): 0.63%
viability, T/C (second compound 3.16 µM, first compound 0.3 µM): 0.66%
viability, T/C (second compound 10 µM, first compound 0.000949 µM): 0.3%
viability, T/C (second compound 10 µM, first compound 0.003 µM): 0.19%
viability, T/C (second compound 10 µM, first compound 0.00949 µM): 0.47%
viability, T/C (second compound 10 µM, first compound 0.03 µM): 0.32%
viability, T/C (second compound 10 µM, first compound 0.0949 µM): 0.23%
viability, T/C (second compound 10 µM, first compound 0.3 µM): 0.22%
